Measurements: patent US8053435B2, “Naphthalenyloxypropenyl derivatives having inhibitory activity against histone deacetylase and pharmaceutical composition comprising the same” (Korea Research Institute of Chemical Technology, priority 2006, dated 2011)
Read-outs that look alike come from different tables or passages of the source.

Key:
[1] = tested on: HDAC; experiment: Inhibitory activity against HDAC (BIOMOL Quantizyme Assay system, Fluor de Lys substrate); format: biochemical; settings: HeLa nuclear extract as source of HDAC enzymes, enzyme reaction 1 hr
Description: HDAC activity was analyzed using BIOMOL Quantizyme™ Assay system which comprised two steps of 1) enzyme reaction between HDAC and a substrate and 2) determination of the level of HDAC inhibitory activity.
(§1) 0.5 μl of HeLa nuclear organic layer (10 μM) (a source of HDAC enzymes) was then added thereto to a final concentration of 100 nM. The enzyme reaction was carried out for 1 hr.
Subsequently, in step 2), 2 μM tricostatin A was added to 50 μl of Flour de Lys™ developer, followed by allowing the mixture to react at room temperature for 15 minutes. The light excited at 355 nm and emitted at 460 nm from the fluorophore was measured with a fluorometric plate reader. The intensity of the fluorescence increases as the enzyme activity is higher. The HDAC inhibitory activity of each of the test compounds was determined and compared with that of the control.
0.5 μl of HeLa nuclear organic layer (10 μM) (a source of HDAC enzymes) was then added thereto to a final concentration of 100 nM, The enzyme reaction was carried out for 1 hr.
as §1, §1

[2] = tested on: colon cancer cells HCT116; experiment: Inhibitory activity against proliferation of cancer cells, SRB (Sulforhodamine B) analysis; format: cell-based; settings: Homo sapiens, read-out: Inhibitory conc. against cancer cell growth (EC50 μM) HCT116
Description: Cancer cells were inoculated into a 96-well microplate at a concentration of 1×10^3˜3×10^3 cells/well and incubated under the condition of 37° C., 5% CO2 for 24 hrs. After the incubation was completed, 0.2, 1, 5, 25, or 100 μM of each of the compounds of Examples was added to the plate, and then the reactant was incubated for 48 hrs. After the substrate was stained with SRB, the anti-cancer activity was determined by comparing the amount of protein in the cells treated with the compound of Examples with that of protein in untreated cells.
Specifically, after the incubation was completed, the culture medium was removed from each well, and the cells were washed 3 times with PBS (pH 7.4). Then, a solution of 50% trichloroacetic acid (TCA) was added to each well in an amount of 50 μl/well at 4° C. for 1 hr to fix them. Then, the microplate was washed 5 times with distilled water and dried in air. […]
50 μl of a staining solution prepared by dissolving 0.4% SRB in 1% acetic acid was added to the wells, and the microplate was kept at room temperature for 1 hr. The well plate was then washed 5 times with 1% acetic acid to remove unbound SRB and dried in air. The stained cells were treated with 150 μl/well of 10 mM Tris-HCl solution (pH 10.5) to elute SRB from the cells, and the absorbance of the cells treated with the compounds of examples at 540 nm was measured, based on the absorbance of an untreated cell. The EC50 value representing inhibition of the cancer cell growth by the extent of 50% was calculated from the measured absorbance, and the results are shown in Table 6.

[3] = Table 3, formula (2) series, read-out: IC50 (HDAC inhibitory concentration)
[4] = HCT-116, Table 4, 48 hrs incubation with compound
[5] = Table 7, formula (4) series, read-out: HDAC Inhibitory conc. (IC50, μM/ml)
[6] = HCT-116, Table 8, 48 hrs incubation with compound
[7] = Table 1, formula (1) series, read-out: IC50 (HDAC inhibitory concentration)
[8] = HCT-116, Table 2, 48 hrs incubation with compound
[9] = Table 5, formula (3) series, read-out: Inhibitory conc. (IC50, μM/ml)
[10] = HCT-116, Table 6, 48 hrs incubation with compound

Row | Structure (SMILES) | EC50 [2, 4] | IC50 [1, 5] | EC50 [2, 6] | also measured
1 | CC(C)N1CCC(NC(=O)/C(=C/CCCCC(=O)NO)COc2cccc3ccccc23)C1 (stereo not drawn) [Example 2-21, (E)-N8-Hydroxy-N1-(1-isopropylpyrrolidin-3-yl)-2-((naphthalen-1-yloxy)methyl)-2-octenediamide] | 1 µM |  |  | IC50 [1, 3]: 0.012 µM
2 | COc1ccc(CNC(=O)/C(=C/c2ccc(C(=O)NO)cc2)COc2cccc3ccccc23)cc1 [Example 1-7, (E)-4-(3-(4-Methoxybenzylamino)-2-((naphthalen-1-yloxy)methyl)-3-oxoprop-1-enyl)-N-hydroxybenzamide] |  |  |  | IC50 [1, 7]: 0.01 µM; EC50 [2, 8]: 0.7 µM
3 | COc1ccc(CCNC(=O)/C(=C/CCCCC(=O)NO)COc2cccc3ccccc23)cc1 [Example 2-16, (E)-N8-Hydroxy-N1-(4-methoxyphenethyl)-2-((naphthalen-1-yloxy)methyl)-2-octenediamide] | 0.7 µM |  |  | IC50 [1, 3]: 0.017 µM
4 | O=C(CCCC/C=C(\COc1cccc2ccccc12)C(=O)NC1CCN(Cc2ccccc2)C1)NO (stereo not drawn) [Example 2-20, (E)-N1-(1-Benzylpyrrolidin-3-yl)-N8-hydroxy-2-((naphthalen-1-yloxy)methyl)-2-octenediamide] | 0.9 µM |  |  | IC50 [1, 3]: 0.007 µM
5 | O=C(NCc1ccco1)/C(=C/c1ccc(C(=O)NO)cc1)COc1cccc2ccccc12 [Example 1-12, (E)-4-(3-(Furan-2-ylmethylamino)-2-((naphthalen-1-yloxy)methyl)-3-oxoprop-1-enyl)-N-hydroxybenzamide] |  |  |  | IC50 [1, 7]: 0.007 µM; EC50 [2, 8]: 0.6 µM
6 | O=C(CCCCC=C(COc1cccc2ccccc12)C(=O)NCC1CCCO1)NO (stereo not drawn) [Example 2-8, (E)-N8-Hydroxy-2-((naphthalen-1-yloxy)methyl)-N1-(tetrahydrofuran-2-yl)methyl)-2-octenediamide] | 0.7 µM |  |  | IC50 [1, 3]: 0.014 µM
7 | O=C(CCCC/C=C(\COc1ccc2ccccc2c1)C(=O)NC1CCN(C2CCCCC2)C1)NO (stereo not drawn) [Example 2-25, (E)-N1-(1-Cyclohexylpyrrolidin-3-yl)-N8-hydroxy-2-((naphthalen-2-yloxy)methyl)-2-octenediamide] | 0.5 µM |  |  | IC50 [1, 3]: 0.01 µM
8 | CC(C)N1CCC(NC(=O)/C(=C/c2ccc(C(=O)NO)cc2)COc2cccc3ccccc23)CC1 [Example 1-23, (E)-4-(3-(1-Isopropylpiperidin-4-ylamino)-2-((naphthalen-1-yloxy)methyl)-3-oxoprop-1-enyl)-N-hydroxybenzamide] |  |  |  | EC50 [2, 8]: 0.7 µM
9 | CN(C)c1ccc(CNC(=O)/C(=C/c2ccc(C(=O)NO)cc2)COc2cccc3ccccc23)cc1 [Example 1-13, (E)-4-(3-(4-(Dimethylamino)benzylamino)-2-((naphthalen-1-yloxy)methyl)-3-oxoprop-1-enyl)-N-hydroxybenzamide] |  |  |  | IC50 [1, 7]: 0.02 µM; EC50 [2, 8]: 0.8 µM
10 | CN(C)c1ccc(CNC(=O)/C(=C/CCCCC(=O)NO)COc2cccc3ccccc23)cc1 [Example 2-12, (E)-N1-(4-(Dimethylamino)benzyl)-N8-hydroxy-2-((naphthalen-1-yloxy)methyl)-2-octenediamide] | 0.5 µM |  |  | IC50 [1, 3]: 0.006 µM
11 | CN1CCC(NC(=O)/C(=C/c2ccc(C(=O)NO)cc2)COc2cccc3ccccc23)CC1 [Example 1-1, (E)-4-(3-(1-Methylpiperidin-4-ylamino)-2-((naphthalen-1-yloxy)methyl)-3-oxoprop-1-enyl)-N-hydroxybenzamide] |  |  |  | IC50 [1, 7]: 0.006 µM; EC50 [2, 8]: 0.54 µM
12 | O=C(CCCC/C=C(\COc1cccc2ccccc12)C(=O)NC1CCCCC1)NO [Example 2-14, (E)-N1-Cyclohexyl-N8-hydroxy-2-((naphthalen-1-yloxy)methyl)-2-octenediamide] | 0.8 µM |  |  | 
13 | O=C(CCCC/C=C(\COc1cccc2ccccc12)C(=O)NC1CCN(C2CC2)CC1)NO [Example 2-27, (E)-N1-(1-Cyclopropylpiperidin-4-yl)-N8-hydroxy-2-((naphthalen-1-yloxy)methyl)-2-octenediamide] | 0.32 µM |  |  | IC50 [1, 3]: 0.016 µM
14 | COCC(C)NC/C(=C/CCCCC(=O)NO)COc1cccc2ccccc12 (stereo not drawn) [Example 3-2, (Z)—N-Hydroxy-8-(1-methoxypropan-2-ylamino)-7-((naphthalen-1-yloxy)methyl)oct-6-enamide] |  |  |  | IC50 [1, 9]: 0.005 µM; EC50 [2, 10]: 0.2 µM
15 | COCCNC/C(=C/CCCCC(=O)NO)COc1cccc2ccccc12 [Example 3-10, (Z)—N-Hydroxy-8-(2-methoxyethylamino)-7-((naphthalen-1-yloxy)methyl)oct-6-enamide] |  |  |  | IC50 [1, 9]: 0.006 µM; EC50 [2, 10]: < 0.2 µM
16 | O=C(CCCC/C=C(/CNCCN1CCOCC1)COc1cccc2ccccc12)NO [Example 3-1, (Z)—N-hydroxy-8-(2-morpholinoethylamino)-7-((naphthalen-1-yloxy)methyl)oct-6-enamide] |  |  |  | IC50 [1, 9]: 0.002 µM; EC50 [2, 10]: 0.2 µM
17 | COc1ccc(CCNC(=O)/C(=C/c2ccc(C(=O)NO)cc2)COc2cccc3ccccc23)cc1 [Example 1-3, (E)-4-(3-(4-Methoxyphenethylamino)-2-((naphthalen-1-yloxy)methyl)-3-oxoprop-1-enyl)-N-hydroxybenzamide] |  |  |  | IC50 [1, 7]: 0.08 µM
18 | CCN(CC)CCCNC/C(=C/CCCCC(=O)NO)COc1cccc2ccccc12 [Example 3-12, (Z)-8-(3-(Diethylamino)propylamino)-N-hydroxy-7-((naphthalen-1-yloxy)methyl)oct-6-enamide] |  |  |  | IC50 [1, 9]: 0.113 µM

The next lines start with results.

Row | EC50 [2, 4] | IC50 [1, 5] | EC50 [2, 6] | Structure (SMILES) | also measured
19 |  | 0.016 µM | 10 µM | O=C(NO)c1ccc(/C=C(/CNC2CCN(C3CCCC3)CC2)COc2cccc3ccccc23)cc1 [Example 4-7, (Z)-4-(3-(1-cyclopentylpiperidin-4-ylamino)-2-((naphthalen-1-yloxy)methyl)prop-1-enyl)-N-hydroxybenzamide] | 
20 |  | 0.003 µM | < 0.2 µM | O=C(NO)c1ccc(/C=C(/CNCCc2ccc(O)cc2)COc2cccc3ccccc23)cc1 [Example 4-17, (Z)—N-hydroxy-4-(3-(4-hydroxyphenethylamino)-2-((naphthalen-1-yloxy)methyl)prop-1-enyl)-benzamide] | 
21 |  | 0.02 µM | 1.3 µM | O=C(NO)c1ccc(/C=C(/CNCc2cccs2)COc2cccc3ccccc23)cc1 [Example 4-22, (Z)—N-hydroxy-4-(3-(naphthalen-1-yloxy)-2-((thiophen-2-ylmethylamino)methyl)prop-1-enyl)benzamide] | 
22 |  | 0.014 µM | 0.4 µM | CC(C)N1CCC(NC/C(=C/c2ccc(C(=O)NO)cc2)COc2cccc3ccccc23)CC1 [Example 4-15, (Z)—N-hydroxy-4-(3-(1-isopropylpiperidin-4-ylamino)-2-((naphthalen-1-yloxy)methyl)prop-1-enyl)benzamide] | 
23 |  | 0.011 µM | 0.5 µM | O=C(NO)c1ccc(/C=C(/CNC2CCN(C3CC3)CC2)COc2cccc3ccccc23)cc1 [Example 4-10, (Z)-4-(3-(1-cyclopropylpiperidin-4-ylamino)-2-((naphthalen-1-yloxy)methyl)prop-1-enyl)-N-hydroxybenzamide] | 
24 |  | 0.006 µM | 0.31 µM | CN(C)CC(C)(C)CNC/C(=C/c1ccc(C(=O)NO)cc1)COc1cccc2ccccc12 [Example 4-18, (Z)-4-(3-(3-(dimethylamino)-2,2-dimethylpropylamino)-2-((naphthalen-1-yloxy)methyl)prop-1-enyl)-N-hydroxybenzamide] | 
25 |  | 0.016 µM | 0.8 µM | CC(C)N(CCNC/C(=C/c1ccc(C(=O)NO)cc1)COc1cccc2ccccc12)C(C)C [Example 4-19, (Z)-4-(3-(2-(diisopropylamino)ethylamino)-2-((naphthalen-1-yloxy)methyl)prop-1-enyl)-N-hydroxybenzamide] | 
26 |  | 0.011 µM | 0.5 µM | CN(C)c1ccc(CNC/C(=C/c2ccc(C(=O)NO)cc2)COc2cccc3ccccc23)cc1 [Example 4-24] | 
